Experimental data taken from patent publication US20230212319A1, “NOVEL ANTIGEN BINDING DOMAINS AND SYNTHETIC ANTIGEN RECEPTORS INCORPORATING THE SAME” (University of Southern California, priority 2020, published 2023).

Experiments:
[1] = Flow cytometry of expanded CAR-T/SIR-T cells (Protein L staining, T cell surface markers); format: cell-based, human; details: CAR-T and SIR-T cells expanded 7 days with 1 µM
Method: Cells were expanded in XVIVO medium under standard conditions in the presence of IL2 and CD3/CD28 beads in the absence or presence of Birinapant 1 µM for 7 days and. After 7 days, cells were analyzed by flow cytometry for expression of different cell surface markers.
Cells were pelleted and re-suspended in XVIVO-15 (Lonza) T-cell medium supplemented with PSA, 100 IU/ml recombinant human IL2 and Dynabeads Human T-Activator CD3/CD28 and 5% hAB serum.
The cells were analyzed by flow cytometery for expresson of SIR by staining with Protein L and for presence of different T cell markers.
After 13 days of culture, cells were counted and analyzed by flow cytometry.

[2] = test system: Nalm6 cells; assay: Cytokine ELISA (IFNγ, TNFα, IL-2) after co-culture with Nalm6; format: cell-based; details: T cells expanded 7 days with compound, co-cultured with Nalm6 48 h
Method: After 48 h, supernatant was collected and used for measurement of IFNγ, TNFα and IL-2 by ELISA.
Control T cells or SIR-T cells grown in regular flask or G-Rex 6-well plate were cultured with Nalm6-hGLuc 100 K/well/100 ul in 96-well plate U-bottom in XVIVO medium with no additional component. After 48 h co-culture, supernatant was collected and used for ELISA.
The supernatant from the different cell populations were tested for cytokine production upon co-culture with NALM6 cells.

[3] = test system: RAJI cells; assay: T cell cytotoxicity against RAJI (Matador assay, Gluc); format: cell-based

Compound: CC[C@H](NC(=O)[C@H](C)NC)C(=O)N1C[C@@H](O)C[C@H]1Cc1c(-c2[nH]c3cc(F)ccc3c2C[C@@H]2C[C@H](O)CN2C(=O)[C@H](CC)NC(=O)[C@H](C)NC)[nH]c2cc(F)ccc12 [Birinapant]
- CD4 cells [1]: decline
- CD62L cells [1]: increase
- proportion of CD8 cells [1]: increase
- IFNγ secretion [2]: no significant decrease
- IL2 secretion [2]: no significant decrease
- TNFα secretion [2]: no significant decrease
- non-specific killing by uninfected control T cells expanded in presence of SMAC mimetic ([3]; 100 nM or 1 µM, 16 days, RAJI-Gluc, 4 h): no effect
- cell killing of RAJI cells by SAR-T cells expanded in presence of SMAC mimetic ([3]; SAR SEQ ID NO: 7348 T cells expanded 16 days with 100 nM or 1 µM, E:T 0.25:1 and 0.5:1, 4 h): dose dependent increase
